Source: ChEMBL document CHEMBL5030545, “Discovery of clinical candidate Sivopixant (S-600918): Lead optimization of dioxotriazine derivatives as selective P2X3 receptor antagonists” (Bioorg Med Chem Lett, 2021)
In brackets after ≈: the same amount, converted by molar mass.

What was measured:
Rattus norvegicus [1] = assay: Analgesic activity in rat model of partial sciatic nerve ligation-induced neuropathic pain assessed as reversal of allodynia at 3 mg/kg, po measured after 3 hrs relative to control; type: functional
[2] = Oral bioavailability in rat at 1 mg/kg administered as cassette dose; type: ADME, organism-based; details: in vivo
[3] = Protein binding in rat plasma assessed as unbound fraction at 1 mg/kg administered as cassette dose; type: ADME, organism-based
[4] = Free plasma concentration in rat plasma at 1 mg/kg administered as cassette dose; type: ADME, organism-based; details: in vivo
P2X purinoceptor 3 = target: T1, P2X purinoceptor 3 (Rattus norvegicus, UniProt P49654); assay: Antagonist activity at rat P2X3 receptor
T1 sequence (P49654 whole entry): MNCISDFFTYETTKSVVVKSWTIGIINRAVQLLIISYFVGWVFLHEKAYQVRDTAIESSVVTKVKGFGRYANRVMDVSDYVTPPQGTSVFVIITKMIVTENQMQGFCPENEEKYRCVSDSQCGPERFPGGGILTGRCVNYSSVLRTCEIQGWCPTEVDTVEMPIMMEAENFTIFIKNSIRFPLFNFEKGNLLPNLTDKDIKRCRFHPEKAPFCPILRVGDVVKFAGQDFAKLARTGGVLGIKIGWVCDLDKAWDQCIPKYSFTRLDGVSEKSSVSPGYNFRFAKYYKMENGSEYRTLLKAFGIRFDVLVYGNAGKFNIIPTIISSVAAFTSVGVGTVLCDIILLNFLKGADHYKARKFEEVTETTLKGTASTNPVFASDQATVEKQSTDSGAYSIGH

P2X purinoceptor 2 = target: T2, P2X purinoceptor 2 (Homo sapiens, UniProt Q9UBL9); assay: Antagonist activity at P2X2 receptor (unknown origin)
T2 sequence (Q9UBL9 whole entry): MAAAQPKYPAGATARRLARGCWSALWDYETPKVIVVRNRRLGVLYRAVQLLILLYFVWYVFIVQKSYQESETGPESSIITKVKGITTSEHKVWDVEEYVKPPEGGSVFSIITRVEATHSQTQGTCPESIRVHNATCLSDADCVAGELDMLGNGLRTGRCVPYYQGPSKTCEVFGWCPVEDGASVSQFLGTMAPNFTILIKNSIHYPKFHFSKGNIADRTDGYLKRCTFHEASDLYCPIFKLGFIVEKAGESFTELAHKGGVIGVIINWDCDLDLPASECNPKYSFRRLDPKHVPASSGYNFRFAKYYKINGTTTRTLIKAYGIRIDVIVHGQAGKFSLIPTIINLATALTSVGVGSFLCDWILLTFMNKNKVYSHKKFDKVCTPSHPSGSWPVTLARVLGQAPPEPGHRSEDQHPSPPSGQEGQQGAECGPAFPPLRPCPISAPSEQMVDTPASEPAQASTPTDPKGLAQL

P2X purinoceptor 4 = target: T3, P2X purinoceptor 4 (Homo sapiens, UniProt Q99571); assay: Antagonist activity at P2X4 receptor (unknown origin)
T3 sequence (Q99571 whole entry): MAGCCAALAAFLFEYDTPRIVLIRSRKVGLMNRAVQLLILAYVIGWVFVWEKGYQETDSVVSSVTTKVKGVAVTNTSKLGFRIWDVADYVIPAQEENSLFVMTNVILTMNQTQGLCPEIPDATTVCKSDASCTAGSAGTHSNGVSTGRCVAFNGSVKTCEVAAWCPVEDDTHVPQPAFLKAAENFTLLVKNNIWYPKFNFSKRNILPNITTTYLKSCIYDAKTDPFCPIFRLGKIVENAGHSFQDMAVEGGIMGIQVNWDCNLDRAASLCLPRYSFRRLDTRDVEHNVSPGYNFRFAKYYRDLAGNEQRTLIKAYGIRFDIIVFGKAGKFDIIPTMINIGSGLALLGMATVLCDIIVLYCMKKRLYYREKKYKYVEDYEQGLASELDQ

P2X purinoceptor 7 = target: T4, P2X purinoceptor 7 (Homo sapiens, UniProt Q99572); assay: Antagonist activity at P2X7 receptor (unknown origin)
T4 sequence (Q99572 whole entry): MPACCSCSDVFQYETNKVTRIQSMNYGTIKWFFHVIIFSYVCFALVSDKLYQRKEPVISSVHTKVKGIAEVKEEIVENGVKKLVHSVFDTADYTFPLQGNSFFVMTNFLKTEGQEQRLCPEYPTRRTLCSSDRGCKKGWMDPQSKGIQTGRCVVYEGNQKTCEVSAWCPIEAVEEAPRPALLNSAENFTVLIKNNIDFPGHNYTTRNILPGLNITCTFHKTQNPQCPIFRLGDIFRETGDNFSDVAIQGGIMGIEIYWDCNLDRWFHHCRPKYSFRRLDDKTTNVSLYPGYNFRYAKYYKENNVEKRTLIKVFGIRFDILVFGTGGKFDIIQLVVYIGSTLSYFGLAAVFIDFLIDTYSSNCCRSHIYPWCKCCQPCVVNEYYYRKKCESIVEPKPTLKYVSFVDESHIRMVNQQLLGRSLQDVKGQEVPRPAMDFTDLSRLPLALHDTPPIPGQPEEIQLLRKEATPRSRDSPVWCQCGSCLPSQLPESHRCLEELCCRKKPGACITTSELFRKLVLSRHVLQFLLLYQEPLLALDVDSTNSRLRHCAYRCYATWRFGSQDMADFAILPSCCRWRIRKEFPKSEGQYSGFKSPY

[5] = Solubility of the compound in JP2 fluid at pH 6.8; type: physicochemical
Cytochrome P450 1A2 = target: T5, Cytochrome P450 1A2 (Homo sapiens, UniProt P05177); assay: Inhibition of CYP1A2 (unknown origin); type: ADME
T5 sequence (P05177 whole entry): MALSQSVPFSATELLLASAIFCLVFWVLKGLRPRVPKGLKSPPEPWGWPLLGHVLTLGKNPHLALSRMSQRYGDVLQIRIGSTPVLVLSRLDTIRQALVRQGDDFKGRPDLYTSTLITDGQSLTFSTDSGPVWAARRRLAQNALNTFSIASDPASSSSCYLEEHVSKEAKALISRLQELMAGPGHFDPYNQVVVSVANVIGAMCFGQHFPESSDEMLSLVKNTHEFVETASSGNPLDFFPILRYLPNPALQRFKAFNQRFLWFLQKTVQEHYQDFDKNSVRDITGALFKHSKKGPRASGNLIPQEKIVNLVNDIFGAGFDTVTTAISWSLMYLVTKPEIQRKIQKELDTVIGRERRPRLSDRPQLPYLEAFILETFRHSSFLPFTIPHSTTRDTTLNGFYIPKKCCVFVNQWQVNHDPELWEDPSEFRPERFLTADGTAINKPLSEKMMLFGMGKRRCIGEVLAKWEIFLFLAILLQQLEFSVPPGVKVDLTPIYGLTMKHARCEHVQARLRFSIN

Cytochrome P450 2C9 = Cytochrome P450 2C9 (Homo sapiens, UniProt P11712); assay: Inhibition of CYP2C9 (unknown origin); type: ADME
Chain of Cytochrome P450 2C9 (P11712 whole entry): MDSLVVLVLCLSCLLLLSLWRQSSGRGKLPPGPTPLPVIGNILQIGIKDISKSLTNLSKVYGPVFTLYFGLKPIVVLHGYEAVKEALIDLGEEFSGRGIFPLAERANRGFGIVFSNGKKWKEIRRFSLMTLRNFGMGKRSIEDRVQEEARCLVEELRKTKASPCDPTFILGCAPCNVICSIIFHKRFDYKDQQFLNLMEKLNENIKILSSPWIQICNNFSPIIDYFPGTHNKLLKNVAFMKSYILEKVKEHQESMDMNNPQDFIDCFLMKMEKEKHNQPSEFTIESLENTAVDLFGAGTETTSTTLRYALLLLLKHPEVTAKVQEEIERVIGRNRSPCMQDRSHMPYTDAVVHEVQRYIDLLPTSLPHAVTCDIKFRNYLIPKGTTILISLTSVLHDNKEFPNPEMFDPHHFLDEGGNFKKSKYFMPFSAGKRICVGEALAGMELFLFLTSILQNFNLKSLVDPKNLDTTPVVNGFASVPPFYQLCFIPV

[6] = AUC in rat at 3 mg/kg, po; type: ADME, organism-based; design: dose 3 mg/kg; details: in vivo
[7] = Cmax in rat at 3 mg/kg, po; type: ADME, organism-based; design: route oral, dose 3 mg/kg; details: in vivo
[8] = Oral bioavailability in rat at 3 mg/kg; type: ADME, organism-based; details: in vivo
Rattus norvegicus [9] = assay: Analgesic activity in rat model of partial sciatic nerve ligation-induced neuropathic pain assessed as maximum efficacy at 3 mg/kg, po relative to control; type: functional
[10] = Ratio of plasma concentration in rat measured after 3 hrs to IC50 of P2X3 (unknown origin); type: ADME; details: in vivo
[11] = Ratio of free plasma concentration in rat measured after 3 hrs to IC50 of P2X3 (unknown origin); type: ADME

SMILES: C[C@@H](Cn1c(=O)[nH]/c(=N\c2ccc(Oc3ccccn3)cc2)n(Cc2ccc(Cl)cc2)c1=O)C(=O)O
- Activity (Rattus norvegicus [1]): 64%
- bioavailability [2]: 52.8%
- fraction unbound [3]: 0.01
- Cp(f) [4]: 658 nM
- IC50 (P2X purinoceptor 3): 0.004 µM
- IC50 (P2X purinoceptor 2): > 30 µM
- IC50 (P2X purinoceptor 4): > 30 µM
- IC50 (P2X purinoceptor 7): > 30 µM
- solubility [5]: 458 µg/mL (≈ 902 µM)
- IC50 (Cytochrome P450 1A2): > 20 µM
- IC50 (Cytochrome P450 2C9): > 20 µM
- AUC [6]: 14000 ng·h/mL
- Cmax [7]: 1630 ng/mL
- bioavailability [8]: 76.8%
- Emax at 3 mg/kg (Rattus norvegicus [9]): 64%
- Ratio [10]: 156.9
- Ratio [11]: 1.57
